# From patent US20220213047A1, “CARBONIC ANHYDRASE INHIBITORS FOR TREATMENT OF NEISSERIA GONORRHOEAE INFECTION” (Purdue Research Foundation, priority 2021, published 2022)
# “Also recorded” adds a separate entry of the source.
# Columns and labels:
# L. gasseri = assay: MIC50 against pathogenic and commensal bacteria: L. gasseri; type: cell-based; conditions: Lactobacillus gasseri; L. gasseri (4 strains); normal
# Excerpt: (§1) We have shown that CAIs display a narrow-spectrum of activity (Table 6). We have previously shown that CAIs have potential as anti-enterococcal agents for decolonization of the gut and treating systemic vancomycin-resistant enterococci (VRE) infections without affecting commensal strains common in the human microbiome or other pathogenic bacteria. […] The extremely narrow spectrum of this class of inhibitors would be a positive for clinical use as the molecules: 1) would not have deleterious effects on normal microbiota, and 2) would have less opportunity for resistance to arise to other important pathogenic strains aside from VRE.
# N. gonorrhoeae [1] = assay: MIC against N. gonorrhoeae clinical isolates, normal and CO2 conditions; type: cell-based; conditions: Neisseria gonorrhoeae
# Method: (§2) These tests were performed in normal culture conditions with standard CO2 levels and in CO2 (5% in incubator) conditions.
# Bacteroides = assay: MIC50 against pathogenic and commensal bacteria: Bacteroides; type: cell-based; conditions: Bacteroides (9 strains); normal
# Excerpt: as §1
# Lactobacillus sp = assay: MIC50 against pathogenic and commensal bacteria: Lactobacillus sp; type: cell-based; conditions: Lactobacillus sp (12 strains); normal
# Excerpt: as §1
# Klebsiella spp. = assay: MIC50 against pathogenic and commensal bacteria: Klebsiella spp.; type: cell-based; conditions: Klebsiella spp. (4 strains); normal
# Excerpt: as §1
# N. gonorrhoeae [2] = assay: Post-antibiotic effect (PAE); type: cell-based; conditions: after exposure to 10×MIC for 1 hour
# E. coli TolC mutant = assay: MIC50 against pathogenic and commensal bacteria: E. coli TolC mutant; type: cell-based; conditions: Escherichia coli
# Excerpt: as §1
# L. johnsonii = assay: MIC50 against pathogenic and commensal bacteria: L. johnsonii; type: cell-based; conditions: Lactobacillus johnsonii; L. johnsonii (1 strain); normal
# Excerpt: as §1
# S. epidermidis = assay: MIC50 against pathogenic and commensal bacteria: S. epidermidis; type: cell-based; conditions: Staphylococcus epidermidis; S. epidermidis (3 strains); normal
# Excerpt: as §1
# S. pneumoniae = assay: MIC50 against pathogenic and commensal bacteria: S. pneumoniae; type: cell-based; conditions: Streptococcus pneumoniae; S. pneumoniae (4 strains); normal
# Excerpt: as §1
# S. aureus = assay: MIC50 against pathogenic and commensal bacteria: S. aureus; type: cell-based; conditions: Staphylococcus aureus; S. aureus (12 strains); normal
# Excerpt: as §1
# L. crispatus = assay: MIC50 against pathogenic and commensal bacteria: L. crispatus; type: cell-based; conditions: Lactobacillus crispatus; L. crispatus (2 strains); normal
# Excerpt: as §1
# Enterobacter spp. = assay: MIC50 against pathogenic and commensal bacteria: Enterobacter spp.; type: cell-based; conditions: Enterobacter spp. (4 strains); normal
# Excerpt: as §1
# N. gonorrhoeae [3] = assay: MIC by agar dilution on a larger panel of N. gonorrhoeae strains; type: cell-based, Neisseria gonorrhoeae; conditions: for MIC: Neisseria gonorrhoeae, read-out: MIC
# Method: as §2
smiles,measurement,setting,value
CCOc1ccc2nc(S(N)(=O)=O)sc2c1 [Ethoxzolamide],MIC50,L. gasseri,> 256 µg/mL
same,MIC,"N. gonorrhoeae [1]; N. gonorrhoeae 178, Non CO2 environment",≤ 0.5 µg/mL
same,MIC,"N. gonorrhoeae [1]; N. gonorrhoeae 178, normal growth environment (with CO2)",> 64 µg/mL
same,MIC,"N. gonorrhoeae [1]; N. gonorrhoeae 181, Non CO2 environment",≤ 0.5 µg/mL
same,MIC,"N. gonorrhoeae [1]; N. gonorrhoeae 181, normal growth environment (with CO2)",> 64 µg/mL
same,MIC,"N. gonorrhoeae [1]; N. gonorrhoeae 194, Non CO2 environment",≤ 0.5 µg/mL
same,MIC,"N. gonorrhoeae [1]; N. gonorrhoeae 194, normal growth environment (with CO2)",> 64 µg/mL
same,MIC50,Bacteroides,> 256 µg/mL
same,MIC50,Lactobacillus sp,> 256 µg/mL
same,MIC50,Klebsiella spp.,> 256 µg/mL
same,PAE,N. gonorrhoeae [2]; Ng 181,10 h
same,PAE,N. gonorrhoeae [2]; Ng 186,10 h
same,PAE,N. gonorrhoeae [2]; Ng 194,10 h
same,PAE,N. gonorrhoeae [2]; Ng 198,10 h
same,PAE,N. gonorrhoeae [2]; clinical isolates of N. gonorrhoeae,10 h
same,MIC50,E. coli TolC mutant,> 256 µg/mL
same,MIC50,L. johnsonii,> 256 µg/mL
same,MIC50,S. epidermidis,> 256 µg/mL
same,MIC50,S. pneumoniae,> 512 µg/mL
same,MIC50,S. aureus,> 256 µg/mL
same,MIC50,L. crispatus,> 256 µg/mL
same,MIC50,Enterobacter spp.,> 256 µg/mL
same,activity against N. gonorrhoeae under CO2 conditions,"N. gonorrhoeae [3]; CO2 conditions versus standard conditions, listed as EZM",did not maintain any activity; also recorded: significant reduction of activity
same,MIC,"N. gonorrhoeae [3]; N. gonorrhoeae 165, CO2 (5% CO2 containing air)",> 128 µg/mL
same,MIC,"N. gonorrhoeae [3]; N. gonorrhoeae 166, CO2 (5% CO2 containing air)",> 128 µg/mL
same,MIC,"N. gonorrhoeae [3]; N. gonorrhoeae 166, Non CO2 (ambient air)",0.06 µg/mL
same,MIC,"N. gonorrhoeae [3]; N. gonorrhoeae 167, CO2 (5% CO2 containing air)",64 µg/mL
same,MIC,"N. gonorrhoeae [3]; N. gonorrhoeae 167, Non CO2 (ambient air)",0.25 µg/mL
same,MIC,"N. gonorrhoeae [3]; N. gonorrhoeae 170, CO2 (5% CO2 containing air)",> 128 µg/mL
same,MIC,"N. gonorrhoeae [3]; N. gonorrhoeae 170, Non CO2 (ambient air)",0.06 µg/mL
same,MIC,"N. gonorrhoeae [3]; N. gonorrhoeae 171, CO2 (5% CO2 containing air)",64 µg/mL
same,MIC,"N. gonorrhoeae [3]; N. gonorrhoeae 173, CO2 (5% CO2 containing air)",128 µg/mL
same,MIC,"N. gonorrhoeae [3]; N. gonorrhoeae 174, CO2 (5% CO2 containing air)",> 128 µg/mL
same,MIC,"N. gonorrhoeae [3]; N. gonorrhoeae 175, CO2 (5% CO2 containing air)",> 128 µg/mL
same,MIC,"N. gonorrhoeae [3]; N. gonorrhoeae 175, Non CO2 (ambient air)",0.25 µg/mL
same,MIC,"N. gonorrhoeae [3]; N. gonorrhoeae 176, CO2 (5% CO2 containing air)",128 µg/mL
same,MIC,"N. gonorrhoeae [3]; N. gonorrhoeae 176, Non CO2 (ambient air)",0.25 µg/mL
same,MIC,"N. gonorrhoeae [3]; N. gonorrhoeae 177, CO2 (5% CO2 containing air)",16 µg/mL
same,MIC,"N. gonorrhoeae [3]; N. gonorrhoeae 177, Non CO2 (ambient air)",0.5 µg/mL
same,MIC,"N. gonorrhoeae [3]; N. gonorrhoeae 178, CO2 (5% CO2 containing air)",> 128 µg/mL
same,MIC,"N. gonorrhoeae [3]; N. gonorrhoeae 178, Non CO2 (ambient air)",0.06 µg/mL
same,MIC,"N. gonorrhoeae [3]; N. gonorrhoeae 179, CO2 (5% CO2 containing air)",> 128 µg/mL
same,MIC,"N. gonorrhoeae [3]; N. gonorrhoeae 179, Non CO2 (ambient air)",0.25 µg/mL
same,MIC,"N. gonorrhoeae [3]; N. gonorrhoeae 180, CO2 (5% CO2 containing air)",> 128 µg/mL
same,MIC,"N. gonorrhoeae [3]; N. gonorrhoeae 181, CO2 (5% CO2 containing air)",64 µg/mL
same,MIC,"N. gonorrhoeae [3]; N. gonorrhoeae 181, Non CO2 (ambient air)",0.25 µg/mL
